In the supplement of paper PMC13380429:

Legend:
[1] = tested on: A549-ACE2 infected with SARS-CoV-2; experiment: cell count relative to DMSO; higher = less toxic; conditions: 24 h
Caco-2 [2] = experiment: cell viability relative to DMSO; higher = less toxic; conditions: 72 h
HepG2 [3] = experiment: as above; conditions: 72 h
U2OS [4] = experiment: as above; conditions: 72 h
Vero E6 [5] = experiment: as above; conditions: 72 h
[6] = tested on: A549-ACE2 infected with SARS-CoV-2; experiment: SARS-CoV-2 infection rate relative to DMSO; higher = more infection; conditions: 24 h
A549-ACE2 = experiment: drug-induced phospholipidosis relative to tamoxifen; higher = more phospholipidosis
[7] = tested on: A549-ACE2 infected with SARS-CoV-2; experiment: morphology score (similarity to uninfected cells); higher = more like uninfected cells; conditions: 24 h
HepG2 [8] = experiment: relative viability EC50 (midpoint between 100% and the lowest measured viability); higher = less toxic; conditions: 72 h
U2OS [9] = experiment: as above; conditions: 72 h
Vero E6 [10] = experiment: as above; conditions: 72 h
Caco-2 [11] = experiment: drug sensitivity score (DSS) for viability; higher = more toxic; extreme values may be limits of the assay; conditions: 72 h
HepG2 [12] = experiment: as above; conditions: 72 h
U2OS [13] = experiment: as above; conditions: 72 h
Vero E6 [14] = experiment: as above; conditions: 72 h
Calu-3 [15] = experiment: cell viability relative to DMSO; higher = less toxic; conditions: 72 h
Caco-2 [16] = experiment: relative viability EC50 (midpoint between 100% and the lowest measured viability); higher = less toxic; conditions: 72 h
Calu-3 [17] = experiment: as above; conditions: 72 h
Calu-3 [18] = experiment: drug sensitivity score (DSS) for viability; higher = more toxic; extreme values may be limits of the assay; conditions: 72 h

CN1C(=O)/C(=C2/C(=O)Nc3ccccc32)c2ccccc21 [meisoindigo]
Conditions	SARS-CoV-2 infection rate, [6] [%]	cell count, [1] [%]	cell viability, Caco-2 [2] [%]	cell viability, HepG2 [3] [%]	cell viability, U2OS [4] [%]	cell viability, Vero E6 [5] [%]	morphology score, [7]
1 nM	–	–	94.4	96.1	98	104	–
10 nM	–	–	104	101	102	102	–
0.1 µM	103	101	–	–	–	–	-0.25
100 nM	–	–	93.1	90.6	97.4	98.8	–
0.3 µM	103	102	–	–	–	–	-0.21
1 µM	102	98	–	–	–	–	-0.24
1000 nM	–	–	87.2	75.5	99	93.7	–
3 µM	97	101	–	–	–	–	-0.12
10000 nM	–	–	73.1	49	90.1	47.7	–

drug-induced phospholipidosis [%], A549-ACE2
Conditions	0.3 µM	0.833333 µM	3.33333 µM	6.66667 µM	10 µM	30 µM
24 h	-2.39	-5.22	-2.5	-1.79	–	6.15
48 h	-0.22	-2.93	-2.52	0.92	–	4.45
72 h	0.716	-2.02	-1.09	1.04	9.76	5.86

Conditions	drug sensitivity score	relative viability EC50 [µM]
Caco-2 [11]	2.2	–
HepG2 [8]	–	0.869
HepG2 [12]	5.6	–
U2OS [9]	–	> 10
U2OS [13]	0	–
Vero E6 [10]	–	2.18
Vero E6 [14]	3.8	–

NC(=O)C1CCCc2c1[nH]c1ccc(Cl)cc21 (configuration not stated) [EX-527]
cell viability [%]
Conditions	Caco-2 [2]	Calu-3 [15]	HepG2 [3]	U2OS [4]	Vero E6 [5]
1 nM	99.7	107	93.3	95.9	94.1
10 nM	94.8	101	107	93.2	107
100 nM	98.5	107	98	105	93.7
1000 nM	92	96.6	110	93.4	98.9
10000 nM	103	94.7	106	98.1	109

Conditions	drug sensitivity score	relative viability EC50 [µM]
Caco-2 [11]	0	–
Caco-2 [16]	–	> 10
Calu-3 [17]	–	> 10
Calu-3 [18]	0	–
HepG2 [8]	–	> 10
HepG2 [12]	0	–
U2OS [9]	–	> 10
U2OS [13]	0	–
Vero E6 [10]	–	> 10
Vero E6 [14]	0	–

CCN(CC)CCCC(C)Nc1ccnc2cc(Cl)ccc12 (configuration not stated) [chloroquine]
[7]
Conditions	morphology score
0.3 µM	0.17
3 µM	0.37
10 µM	0.63
30 µM	0.8

Conditions	drug sensitivity score
Calu-3 [18]	0
HepG2 [12]	0.6
U2OS [13]	0

CO/N=C(\C(=O)N[C@@H]1C(=O)N2C(C(=O)OCOC(=O)C(C)(C)C)=C(/C=C\c3scnc3C)CS[C@H]12)c1csc(N)n1 [cefditoren-pivoxil]
cell viability [%]
Conditions	Caco-2 [2]	Calu-3 [15]	HepG2 [3]	U2OS [4]	Vero E6 [5]
1 nM	104	96.9	91	103	94.7
10 nM	97.5	105	99.7	108	98.9
100 nM	105	86.3	97.3	103	94.2
1000 nM	99.1	101	103	96.6	92.7
10000 nM	90.9	106	84.2	100	91.9

Conditions	drug sensitivity score	relative viability EC50 [µM]
Caco-2 [11]	0	–
Caco-2 [16]	–	> 10
Calu-3 [17]	–	> 10
Calu-3 [18]	0	–
HepG2 [8]	–	> 10
HepG2 [12]	0.2	–
U2OS [9]	–	> 10
U2OS [13]	0	–
Vero E6 [10]	–	> 10
Vero E6 [14]	0	–

CN1CCCN=C1COC(=O)C(O)(c1ccccc1)C1CCCCC1 (configuration not stated) [oxyphencyclimine]
cell viability [%]
Conditions	Caco-2 [2]	Calu-3 [15]	HepG2 [3]	U2OS [4]	Vero E6 [5]
1 nM	99.8	93	93.6	97.2	103
10 nM	99.3	102	102	101	104
100 nM	100	102	105	94.6	100
1000 nM	106	98.8	91.3	97.3	91.7
10000 nM	102	94.7	92.2	93	91.8

Conditions	drug sensitivity score	relative viability EC50 [µM]
Caco-2 [11]	0	–
Caco-2 [16]	–	> 10
Calu-3 [17]	–	> 10
Calu-3 [18]	0	–
HepG2 [8]	–	> 10
HepG2 [12]	0	–
U2OS [9]	–	> 10
U2OS [13]	0	–
Vero E6 [10]	–	> 10
Vero E6 [14]	0	–

COc1ccc(OC[C@@H]2c3cc(OC)c(OC)cc3CCN2C(=O)c2cccc(Cl)c2)cc1 [CIQ]
cell viability [%]
Conditions	Caco-2 [2]	Calu-3 [15]	HepG2 [3]	U2OS [4]	Vero E6 [5]
1 nM	101	100	101	96.6	100
10 nM	102	102	96.5	100	97.4
100 nM	91.8	100	91.4	93.9	93.7
1000 nM	101	109	89.9	104	94
10000 nM	76.4	92.7	106	91.3	98.6

Conditions	drug sensitivity score	relative viability EC50 [µM]
Caco-2 [11]	0.8	–
Caco-2 [16]	–	> 10
Calu-3 [17]	–	> 10
Calu-3 [18]	0	–
HepG2 [8]	–	> 10
HepG2 [12]	0	–
U2OS [9]	–	> 10
U2OS [13]	0	–
Vero E6 [10]	–	> 10
Vero E6 [14]	0	–

Nc1nc(CC(=O)Nc2ccc(CCNC[C@H](O)c3ccccc3)cc2)cs1 [mirabegron]
cell viability [%]
Conditions	Caco-2 [2]	Calu-3 [15]	HepG2 [3]	U2OS [4]	Vero E6 [5]
1 nM	99.8	93.8	104	102	99.1
10 nM	100	97	96.6	98.2	96.3
100 nM	97.7	100	104	93.6	101
1000 nM	108	110	93.2	102	93.2
10000 nM	92.2	108	102	97.5	103

Conditions	drug sensitivity score	relative viability EC50 [µM]
Caco-2 [11]	0	–
Caco-2 [16]	–	> 10
Calu-3 [17]	–	> 10
Calu-3 [18]	0	–
HepG2 [8]	–	> 10
HepG2 [12]	0	–
U2OS [9]	–	> 10
U2OS [13]	0	–
Vero E6 [10]	–	> 10
Vero E6 [14]	0	–
